Results as given in paper PMC10174255, “Drug repurposing approach against chikungunya virus: an in vitro and in silico study” (Frontiers in Cellular and Infection Microbiology, 2023).

Assays:
[1] = MTT cytotoxicity assay; conditions: African green monkey
[2] = system: Vero CCL-81 cells; test: MTT cytotoxicity assay; conditions: for The maximum nontoxic concentration used for primary screening of drugs against CHIKV: Vero CCL-81, ≥90% cell viability
[3] = system: CHIKV; test: Viral RNA copy number by quantitative RT-PCR
[4] = system: CHIKV; test: Immunofluorescence assay (percent infected cells); conditions: posttreatment, IFA, compared to VC
[5] = system: CHIKV; test: Antiviral assay (pre-, co-, posttreatment) with FFU readout; conditions: for anti chikungunya activity: Vero CCL-81, any treatment condition; for IC50 / anti-CHIKV activity in primary screening: FFU; for IC50: Vero CCL-81; for anti-CHIKV activity in primary screening: highest nontoxic concentration
[6] = system: CHIKV; test: Time-of-addition assay (extra- and intracellular virus, FFU)
[7] = posttreatment, 6.25 µM, VC 8.870

With `CC(C)Cn1c(=O)n(C)c(=O)c2[nH]cnc21` [3-isobutyl 1-methylxanthine] as the compound, how does the CC50 [1] read?
The CC50 was 177 ± 21.7 µM.

What about the “The maximum nontoxic concentration used for primary screening of drugs against CHIKV” value (“The maximum nontoxic concentration used” for short) [2] of the same compound?
Its value is 50 µM.

Which “The maximum nontoxic concentration used” value [2] does the source give for `Nc1cccc2c1CN(C1CCC(=O)NC1=O)C2=O` (stereo not drawn) [Lenalidomide] here?
Its value is 200 µM.

With `Cc1ccc(NC(=O)c2ccc(CN3CCN(C)CC3)cc2)cc1Nc1nc(-c2cccnc2)cs1` [Masitinib] as the compound, how does the “cytotoxicity” value ([2]; Vero CCL-81, even at lowest concentrations) read?
The value was “highly toxic”.

For `Oc1ccc(/C=C/c2cc(O)cc(O)c2)cc1` [Resveratrol], which CC50 [1] is on record?
Its CC50 is 40.9 ± 4.57 µM.

And the “The maximum nontoxic concentration used” value [2]?
The value was 12.5 µM.

And the “effect on viral RNA copy number/titre” value ([3]; posttreatment)?
Its value is “No reduction”.

What about the “reduction in percentage of infected cells” value [4] of the same compound?
The value was “prominently observed”.

What about the “anti chikungunya activity” value [5] of the same compound?
The value was “exhibit anti chikungunya activity”.

And the “Selectivity Index (SI)” value ([5]; posttreatment)?
Its value is 23.74.

And the “mean log10 viral titer/ml” value [5, 7]?
Its value is 8.261 log10 FFU/ml.

And the “mean log10 viral titer/ml” value ([5]; posttreatment, 12.5 µM, VC 8.870)?
The value was 7.486 log10 FFU/ml.

What about the IC50 ([5]; posttreatment) of the same compound?
Its IC50 is 1.72 µM.

What about the “anti-CHIKV activity in primary screening” value ([5]; posttreatment) of the same compound?
Its value is “effective”.

What about the “effect on extracellular titer of virus” value ([6]; 6.25 µM, added at 3 and 6 h) of the same compound?
The value was “mild but significant reduction”.

What about the “effect on intra- and extracellular virus titer” value ([6]; 12.5 µM, added at 0, 3 and 6 h) of the same compound?
The value was “significant decrease”.

Which results are given for `COc1cc2c(cc1Cc1cccc(Cl)c1F)c(=O)c(C(=O)O)cn2[C@H](CO)C(C)C` [Elvitegravir]?
CC50 [1]: 12.7 ± 1.52 µM; The maximum nontoxic concentration used for primary screening of drugs against CHIKV [2]: 6.25 µM

For `CC(C)(C(=O)c1cccnc1)c1cccnc1` [Metyrapone], which CC50 [1] is on record?
The CC50 was 5600 ± 6100 µM.

What about the “The maximum nontoxic concentration used” value [2] of the same compound?
Its value is 200 µM.

What about the “log10 viral RNA copy number” value ([3]; pretreatment, 200 µM, VC 9.670) of the same compound?
Its value is 8.984.

What about the “anti chikungunya activity” value [5] of the same compound?
The value was “exhibit anti chikungunya activity”.

What about the “Selectivity Index (SI)” value ([5]; pretreatment) of the same compound?
Its value is 457.80.

And the “mean log10 viral titer/ml” value ([5]; pretreatment, 100 µM, VC 8.665)?
The value was 7.136 log10 FFU/ml.

What about the “mean log10 viral titer/ml” value ([5]; pretreatment, 200 µM, VC 8.665) of the same compound?
The value was 7.115 log10 FFU/ml.

And the IC50 ([5]; pretreatment)?
Its IC50 is 12.2 µM.

What about the “anti-CHIKV activity in primary screening” value ([5]; pretreatment) of the same compound?
Its value is “effective”.

Which CC50 [1] does the source give for `CC(C)(C)C#Cc1cc(N(C(=O)[C@H]2CC[C@H](C)CC2)[C@H]2CC[C@H](O)CC2)c(C(=O)O)s1` [Lomibuvir] here?
Its CC50 is 31.5 ± 9.63 µM.

What about the “The maximum nontoxic concentration used” value [2] of the same compound?
Its value is 6.25 µM.

What about the “effect on viral RNA copy number/titre” value ([3]; posttreatment) of the same compound?
Its value is “no change observed”.

What about the “anti chikungunya activity” value [5] of the same compound?
The value was “exhibit anti chikungunya activity”.

What about the “Selectivity Index (SI)” value ([5]; posttreatment) of the same compound?
Its value is 19.83.

And the “mean log10 viral titer/ml” value [5, 7]?
Its value is 7.655 log10 FFU/ml.

What about the IC50 ([5]; posttreatment) of the same compound?
The IC50 was 1.59 µM.

And the “anti-CHIKV activity in primary screening” value ([5]; posttreatment)?
Its value is “effective”.

And the “effect on virus titer” value ([6]; 3.125 µM, added at 3 and 6 h)?
The value was “small but significant reduction”.

And the “effect on intra- and extracellular virus titer” value ([6]; 6.25 µM, added at 0, 3 and 6 h)?
Its value is “significantly reduced”.

What does the source list for `O=C(O)Cc1ccc(-c2ccccc2)cc1` [Felbinac]?
CC50 [1]: 525 ± 200 µM; The maximum nontoxic concentration used for primary screening of drugs against CHIKV [2]: 3.125 µM; effect on viral RNA copy number/titre ([3]; pretreatment): did not have any effect; anti chikungunya activity [5]: exhibit anti chikungunya activity; Selectivity Index (SI) ([5]; pretreatment): 2205.88; mean log10 viral titer/ml ([5]; pretreatment, 1.56 µM, VC 8.665): 7.175 log10 FFU/ml; mean log10 viral titer/ml ([5]; pretreatment, 3.125 µM, VC 8.665): 7.040 log10 FFU/ml; IC50 ([5]; pretreatment): 0.238 µM; anti-CHIKV activity in primary screening ([5]; pretreatment): effective

Which “The maximum nontoxic concentration used” value [2] does the source give for `C[C@@]12CCC[C@H]1[C@@H]1CC[C@H]3C[C@@H](O)CC[C@]3(C)[C@H]1CC2` [5-α-3-β-androstanol] here?
Its value is 12.5 µM.

And the CC50 ([2]; read-out: CC50 value ± SE, Vero CCL-81, MTT, 0.78-200 µM)?
Its CC50 is 23.5 ± 0.856 µM.

With `Cc1nc2c(O)cccc2c(=O)[nH]1` [NU-1025] as the compound, how does the “The maximum nontoxic concentration used” value [2] read?
Its value is 100 µM.

Which results are given for `CC[C@H]1CN2CCc3cc(OC)c(OC)cc3[C@@H]2C[C@@H]1C[C@H]1NCCc2cc(OC)c(OC)cc21` [Emetine]?
CC50 [1]: > 200 µM; The maximum nontoxic concentration used for primary screening of drugs against CHIKV [2]: 200 µM; effect on viral RNA copy number/titre ([3]; posttreatment): No significant reduction; anti chikungunya activity [5]: exhibit anti chikungunya activity; mean log10 viral titer/ml ([5]; posttreatment, 50 µM, VC 8.870): 7.802 log10 FFU/ml; mean log10 viral titer/ml ([5]; posttreatment, 100 µM, VC 8.870): 7.550 log10 FFU/ml; mean log10 viral titer/ml ([5]; posttreatment, 200 µM, VC 8.870): 7.306 log10 FFU/ml; IC50 ([5]; posttreatment): 4.24 µM; anti-CHIKV activity in primary screening ([5]; posttreatment): effective; effect on intra- and extracellular virus titre ([6]; 200 µM, added at 6 h): significant reduction; effect on intra- and extracellular virus titer ([6]; 50-200 µM, added at 0 and 3 h): significantly reduced
